Laboratory results from ChEMBL document CHEMBL1201862, “PubChem BioAssay data set” (2004).
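Compound exposure: 48 hours, 5 concentrations, 96-well plates. GI50 marks 50% less growth.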 Activity calls are given as the source filed them. Rule as the data show it: active = GI50 up to about 1.1 µM and inactive = higher.

Each compound was assayed on BT-549 (assay: inhibition of tumour cell growth, NCI panel, 48 h).
In the case of `CC(C)(C)O/N=C/c1cc(NC(=S)c2ccccc2)ccc1Cl`, the GI50 is reported as 15.6 µM (inactive). In the case of `CC1C2(C)OCC(C#N)(C(=N)O2)C1(C#N)C#N` (stereo not given), the GI50 is reported as 35.2 µM (inactive). For `CCCc1cc(COC)c(C#N)c(O)n1`, the GI50 was > 100 µM (inactive). `CC(C)(C)c1c2c(c(C(C)(C)C)c3c1OCN(Cc1ccccc1)C3)OCN(Cc1ccccc1)C2` was tested, and the GI50 was 16.9 µM (inactive). In the case of `CCOC(=O)CCC(NC(=O)c1ccc(Nc2nc3ccccc3nc2C(=O)OCC)cc1)C(=O)OCC` (stereo not given), the GI50 is reported as 7.66 µM (inactive). `CCOC(=O)c1c(Br)c(-c2ccc(OC)cc2)c(Br)n1C` was tested, and the GI50 was 22.4 µM (inactive). With `CCC1([N+](=O)[O-])CC2C=CC1C2` (stereo not given) the GI50 was > 100 µM (inactive). In the case of `COc1ccc(CCCNC(=O)Cc2cc(OC)c(OC)cc2CO)cc1OC`, the GI50 is reported as > 100 µM (inactive). In the case of `CCOP(=O)(Nc1ccc(-c2ccccc2)cc1)OCC`, the GI50 is reported as > 100 µM (inactive). For `O=c1[nH]c2cc(C(F)(F)F)ccc2nc1Cc1ccccc1`, the GI50 was > 100 µM (inactive). In the case of `Cc1cn(C2CC(O)C(Cn3cc(Cn4ncc(=O)[nH]c4=O)nn3)O2)c(=O)[nH]c1=O` (stereo not given), the GI50 is reported as > 100 µM (inactive). With `CCOC(=O)C1=C(C(=O)c2ccc(C)cc2)C(c2cccc([N+](=O)[O-])c2)C(C(=O)c2ccc(C)cc2)=C(C(=O)OCC)N1` the GI50 was 21.1 µM (inactive). With `O=C(NCc1ccccc1)c1cc2ccccc2o/c1=N\c1ccccc1F` the GI50 was > 100 µM (inactive). In the case of `Cc1csc2nc3c(cnn3C)c(=S)n12`, the GI50 is reported as 39.5 µM (inactive). `O=C(NCCCNCCNC(=O)c1cc(-c2ccccc2)nc2ccccc12)c1cc(-c2ccccc2)nc2ccccc12` was tested, and the GI50 was 11.6 µM (inactive). With `CC(C)NC(=O)OCCN=C1c2ccccc2C(Br)C(Br)c2ccccc21` (stereo not given) the GI50 was 10.4 µM (inactive). In the case of `CSC1(SC)CCCCCCCCCCC1`, the GI50 is reported as 60.3 µM (inactive). In the case of `NC1=CN(Cc2ccccc2)C2=N/C(=C\c3ccccc3)C(=O)N12`, the GI50 is reported as > 100 µM (inactive). With `Cc1coc2c1C(OC(=O)C(C)C)C1(C)C(C)CCC(O)C1C2=O` (stereo not given) the GI50 was > 50.8 µM (inactive). With `CCOC(=O)N1CC2(C)C=CC1C(C(=O)OC)C2` (stereo not given) the GI50 was > 100 µM (inactive). For `O=c1c2ccccc2c2c1c1c3ccccc3c(=O)c1c1c3ccccc3c(=O)c21`, the GI50 was > 100 µM (inactive). `C=CCc1cccc2cc(C(=O)NCc3ccccc3)c(=N)oc12` was tested, and the GI50 was 40.3 µM (inactive). In the case of `COc1ccc(/N=N/c2c(C)c(C#N)c(=S)n(C3OC(COC(C)=O)C(OC(C)=O)C(OC(C)=O)C3OC(C)=O)c2-c2ccccc2)cc1` (stereo not given), the GI50 is reported as 5.33 µM (inactive). With `N#CC(c1ccccc1)N(CCc1ccccc1)C(=O)c1ccccc1` (stereo not given) the GI50 was > 56.2 µM (inactive). For `Cc1ccc(S(=O)(=O)N2CCSCCSCCSCCN(S(=O)(=O)c3ccc(C)cc3)CC2)cc1`, the GI50 was > 100 µM (inactive). In the case of `CCOC(=O)c1nc2c3c(ncn2n1)Oc1c(c(-c2ccccc2)nn1-c1ccccc1)C3c1ccc(OC)c(OC)c1` (stereo not given), the GI50 is reported as 36.3 µM (inactive). In the case of `CCCCC/C(C=O)=C\c1ccccc1`, the GI50 is reported as > 100 µM (inactive). In the case of `O=S(=O)(CCC[C@H]1[C@@H](CCOCc2ccccc2)C2CCCN1O2)c1ccccc1` (stereo not given in full), the GI50 is reported as 41 µM (inactive). For `C/C(=N/c1[nH]c(=O)cc2c1C(=O)CC2)N(C)C`, the GI50 was > 200 µM (inactive). In the case of `COc1ccc(CCNC2=CC(=O)c3ncccc3C2=O)cc1OC`, the GI50 is reported as 1.3 µM (inactive). In the case of `COc1ccc([C@H]2CC(=O)C[C@H](c3ccc(OC)cc3)C23C(=O)c2ccccc2C3=O)cc1`, the GI50 is reported as 5.65 µM (inactive). With `COC(=O)c1ccccc1C1CN=NC12Cc1cccc(C)c1C2=O` (stereo not given) the GI50 was 42.4 µM (inactive). For `COc1ccc(Nc2nc(N)c(C(=O)c3ccco3)s2)cc1`, the GI50 was > 67.8 µM (inactive). `COc1ccc2c(c1)C1Oc3ccccc3CC1(O)CO2` (stereo not given) was tested, and the GI50 was > 100 µM (inactive). In the case of `Cc1ccc(NC(=O)/C(Cc2nc3ccc([N+](=O)[O-])cc3nc2O)=N\NC(=O)C[n+]2ccccc2)c(C)c1`, the GI50 is reported as > 100 µM (inactive). With `CCOC(=O)c1cccc(/N=N/c2ncc(/C=C/C(=O)OC)[nH]2)c1` the GI50 was 34.8 µM (inactive). `Cc1nnc(N)nc1/C=C\c1ccc(N(C)C)cc1` was tested, and the GI50 was > 20.9 µM (inactive). For `CC(C)(C)C1CCC2c3c([nH]c4ccccc34)C3C(=O)N(c4ccccc4[N+](=O)[O-])C(=O)C3C2C1` (stereo not given), the GI50 was 21.7 µM (inactive). In the case of `C[N+]1(C)C(c2ccccc2)C(=O)O[B@-]1(F)c1ccccc1` (stereo not given in full), the GI50 is reported as > 100 µM (inactive). With `O=C1/C(=C/c2ccc([N+](=O)[O-])cc2)CNC/C1=C\c1ccc([N+](=O)[O-])cc1` the GI50 was 2.69 µM (inactive).
